Data: ChEMBL document CHEMBL1201862, “PubChem BioAssay data set” (2004)
Where “and” joins values, the source holds several entries; their conditions need not be identical. Equal values may be shown once. Where a name gives a salt, the structure may show the parent alone. Calls of active or inactive are those of the source.

Tests used:
[1] = molecular target: Non-receptor tyrosine-protein kinase TYK2 (Homo sapiens, UniProt P29597); format: functional
[2] = molecular target: Serine/threonine-protein kinase PAK 4 (Homo sapiens, UniProt O96013); format: functional;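 note: value obtained within a kinome profiling panel in which PAK4 was one of the panel members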
[3] = molecular target: Macrophage-stimulating protein receptor (Homo sapiens, UniProt Q04912); test: Navigating the Kinome. Panel member name: MST1R; format: functional
[4] = molecular target: Testis-specific serine/threonine-protein kinase 1 (Homo sapiens, UniProt Q9BXA7); format: functional
[5] = molecular target: Ribosomal protein S6 kinase beta-1 (Homo sapiens, UniProt P23443); format: functional;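 note: measured as one member of a kinome-wide profiling panel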
[6] = molecular target: Phosphorylase b kinase gamma catalytic chain, liver/testis isoform (Homo sapiens, UniProt P15735); format: functional;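 note: PHKG2 measured as one member of a kinome-wide kinase panel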
[7] = molecular target: Serine/threonine-protein kinase Nek2 (Homo sapiens, UniProt P51955); format: functional
[8] = molecular target: Insulin-like growth factor 1 receptor (Homo sapiens, UniProt P08069); test: Navigating the Kinome. Panel member name: IGF1R; format: functional
[9] = molecular target: Calcium/calmodulin-dependent protein kinase type II subunit gamma (Homo sapiens, UniProt Q13555); format: functional
[10] = molecular target: cAMP-dependent protein kinase catalytic subunit PRKX (Homo sapiens, UniProt P51817); format: functional
[11] = molecular target: Tyrosine-protein kinase SYK (Homo sapiens, UniProt P43405); format: functional
[12] = molecular target: Serine/threonine-protein kinase PLK4 (Homo sapiens, UniProt O00444); format: functional;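 note: PLK4 measured as one member of a kinome-wide kinase profiling panel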
[13] = molecular target: Inhibitor of nuclear factor kappa-B kinase subunit epsilon (Homo sapiens, UniProt Q14164); test: Navigating the Kinome. Panel member name: IKBKE; format: functional
[14] = molecular target: Megakaryocyte-associated tyrosine-protein kinase (Homo sapiens, UniProt P42679); format: functional;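 note: affinity measured as one member of a kinase panel (Navigating the Kinome) against MATK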
[15] = molecular target: Interleukin-1 receptor-associated kinase 4 (Homo sapiens, UniProt Q9NWZ3); format: functional
[16] = molecular target: 5'-AMP-activated protein kinase catalytic subunit alpha-1 (Homo sapiens, UniProt Q13131); format: functional
[17] = molecular target: Calcium/calmodulin-dependent protein kinase type 1 (Homo sapiens, UniProt Q14012); format: functional
[18] = molecular target: Glycogen synthase kinase-3 beta (Homo sapiens, UniProt P49841); format: functional;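 note: value comes from a broad kinome profiling panel, with GSK3B as the panel member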
[19] = molecular target: Serine/threonine-protein kinase Chk1 (Homo sapiens, UniProt O14757); format: functional;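 note: measured as one member of a kinome-wide kinase profiling panel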
[20] = molecular target: RAC-gamma serine/threonine-protein kinase (Homo sapiens, UniProt Q9Y243); format: functional
[21] = molecular target: Proto-oncogene tyrosine-protein kinase receptor Ret (Homo sapiens, UniProt P07949); format: functional;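 note: measured within a kinome-wide profiling panel, RET as the panel member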
[22] = system: HEK293; test: HEK cell cytotoxicity by LDH release, dose response, cytotoxicity control for IDE activator project, fluorescence, HEK cells (AID 588440); format: functional, cell-based; settings: Homo sapiens;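 note: cytotoxicity by LDH release measuring loss of membrane integrity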
[23] = molecular target: CAAX prenyl protease 2 (Saccharomyces cerevisiae S288c, UniProt Q03530); format: biochemical
[24] = molecular target: T1, Streptokinase A (Streptococcus pyogenes serotype M1, UniProt P10520); test: S. pyogenes streptokinase expression inhibitors, potency, dose response, plasminogen activation absorbance, OD405 (AID 1914); format: functional, Streptococcus pyogenes M1 GAS;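 note: secreted streptokinase activity via plasminogen activation per viability signal from cell pellet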
T1 sequence (P10520 whole entry): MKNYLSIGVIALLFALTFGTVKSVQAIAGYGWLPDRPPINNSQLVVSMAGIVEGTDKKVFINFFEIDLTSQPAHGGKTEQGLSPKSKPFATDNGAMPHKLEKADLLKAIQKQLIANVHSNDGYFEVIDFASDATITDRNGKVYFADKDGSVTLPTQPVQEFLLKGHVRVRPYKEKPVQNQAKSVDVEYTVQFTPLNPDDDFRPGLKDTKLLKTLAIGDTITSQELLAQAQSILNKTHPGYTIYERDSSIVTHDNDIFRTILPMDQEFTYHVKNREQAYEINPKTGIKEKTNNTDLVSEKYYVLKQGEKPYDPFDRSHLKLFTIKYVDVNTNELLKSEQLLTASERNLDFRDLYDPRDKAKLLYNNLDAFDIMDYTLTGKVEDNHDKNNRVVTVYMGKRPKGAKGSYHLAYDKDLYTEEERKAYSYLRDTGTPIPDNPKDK

[25] = molecular target: T2, Caspase-6 (Homo sapiens, UniProt P55212); test: human caspase-6 inhibitors, dose response, biochemical, VEID-R110 fluorescence, cherry-pick (AID 720632)
T2 sequence (P55212 whole entry): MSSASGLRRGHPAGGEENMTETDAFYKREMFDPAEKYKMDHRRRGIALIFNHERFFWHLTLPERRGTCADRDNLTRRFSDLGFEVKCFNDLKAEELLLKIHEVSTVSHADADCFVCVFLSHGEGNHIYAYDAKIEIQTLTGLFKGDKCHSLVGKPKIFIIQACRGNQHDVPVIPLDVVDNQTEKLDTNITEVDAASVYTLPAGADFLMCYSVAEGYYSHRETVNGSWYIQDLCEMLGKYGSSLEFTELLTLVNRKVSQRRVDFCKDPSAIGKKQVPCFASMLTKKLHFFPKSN

[26] = Luminescence Cell-Based Dose Response to Identify Activators of Luciferase Translation or Activity in H4-C Neuroglioblastoma Cells. [Related pubchem assays: 1829 (Project Summary), 1814 (Primary HTS)]; format: functional
[27] = molecular target: T3, COUP transcription factor 2 (Homo sapiens, UniProt P24468); test: Luminescence-based cell-based high throughput dose response assay to identify inhibitors of COUP-TFII (NR2F2).; format: functional;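 note: HEK293 cells transiently cotransfected with COUP-TFII expression vector and reporter; luciferase reporter luminescence driven by COUP-TFII from the pX2-168 reporter plasmid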
T3 sequence (P24468 whole entry): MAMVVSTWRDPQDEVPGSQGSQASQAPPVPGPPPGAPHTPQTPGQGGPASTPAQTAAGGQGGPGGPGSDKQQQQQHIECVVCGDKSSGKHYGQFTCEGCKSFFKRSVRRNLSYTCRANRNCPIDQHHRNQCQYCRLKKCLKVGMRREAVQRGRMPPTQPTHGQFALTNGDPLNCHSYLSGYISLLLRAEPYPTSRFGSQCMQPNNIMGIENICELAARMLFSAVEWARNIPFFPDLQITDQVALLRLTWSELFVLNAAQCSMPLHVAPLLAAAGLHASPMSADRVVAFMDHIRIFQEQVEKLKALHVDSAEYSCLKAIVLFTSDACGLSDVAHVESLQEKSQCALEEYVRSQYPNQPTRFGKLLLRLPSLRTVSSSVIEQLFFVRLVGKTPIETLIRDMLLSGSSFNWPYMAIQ

Calcium/calmodulin-dependent protein kinase type II subunit gamma, sequence (Q13555 whole entry): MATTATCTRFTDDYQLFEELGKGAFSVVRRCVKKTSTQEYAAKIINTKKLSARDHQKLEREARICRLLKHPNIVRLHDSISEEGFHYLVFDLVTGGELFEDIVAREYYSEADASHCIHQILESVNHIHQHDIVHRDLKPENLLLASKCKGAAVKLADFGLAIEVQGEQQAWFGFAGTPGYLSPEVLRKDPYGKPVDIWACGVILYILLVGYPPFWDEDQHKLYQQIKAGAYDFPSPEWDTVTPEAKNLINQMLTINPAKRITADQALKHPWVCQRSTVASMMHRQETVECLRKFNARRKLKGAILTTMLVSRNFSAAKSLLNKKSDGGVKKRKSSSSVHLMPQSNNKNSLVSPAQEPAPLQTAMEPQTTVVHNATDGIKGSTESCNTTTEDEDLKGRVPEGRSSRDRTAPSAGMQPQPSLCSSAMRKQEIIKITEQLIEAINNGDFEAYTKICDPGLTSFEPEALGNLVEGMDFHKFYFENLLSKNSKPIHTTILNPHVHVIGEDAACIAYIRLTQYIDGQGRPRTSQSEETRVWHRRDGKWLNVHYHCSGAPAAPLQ
Testis-specific serine/threonine-protein kinase 1, sequence (Q9BXA7 whole entry): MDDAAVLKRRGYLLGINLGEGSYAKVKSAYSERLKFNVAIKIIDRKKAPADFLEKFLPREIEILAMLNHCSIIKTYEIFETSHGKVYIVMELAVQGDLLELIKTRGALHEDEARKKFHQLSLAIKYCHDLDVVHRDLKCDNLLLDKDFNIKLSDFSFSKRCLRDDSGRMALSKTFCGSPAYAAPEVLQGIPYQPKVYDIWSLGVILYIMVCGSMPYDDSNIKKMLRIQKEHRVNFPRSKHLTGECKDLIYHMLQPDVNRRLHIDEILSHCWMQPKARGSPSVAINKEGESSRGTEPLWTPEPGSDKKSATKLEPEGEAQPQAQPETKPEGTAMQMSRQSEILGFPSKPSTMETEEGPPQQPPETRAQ
Insulin-like growth factor 1 receptor, sequence (P08069 31-736 limits assumed): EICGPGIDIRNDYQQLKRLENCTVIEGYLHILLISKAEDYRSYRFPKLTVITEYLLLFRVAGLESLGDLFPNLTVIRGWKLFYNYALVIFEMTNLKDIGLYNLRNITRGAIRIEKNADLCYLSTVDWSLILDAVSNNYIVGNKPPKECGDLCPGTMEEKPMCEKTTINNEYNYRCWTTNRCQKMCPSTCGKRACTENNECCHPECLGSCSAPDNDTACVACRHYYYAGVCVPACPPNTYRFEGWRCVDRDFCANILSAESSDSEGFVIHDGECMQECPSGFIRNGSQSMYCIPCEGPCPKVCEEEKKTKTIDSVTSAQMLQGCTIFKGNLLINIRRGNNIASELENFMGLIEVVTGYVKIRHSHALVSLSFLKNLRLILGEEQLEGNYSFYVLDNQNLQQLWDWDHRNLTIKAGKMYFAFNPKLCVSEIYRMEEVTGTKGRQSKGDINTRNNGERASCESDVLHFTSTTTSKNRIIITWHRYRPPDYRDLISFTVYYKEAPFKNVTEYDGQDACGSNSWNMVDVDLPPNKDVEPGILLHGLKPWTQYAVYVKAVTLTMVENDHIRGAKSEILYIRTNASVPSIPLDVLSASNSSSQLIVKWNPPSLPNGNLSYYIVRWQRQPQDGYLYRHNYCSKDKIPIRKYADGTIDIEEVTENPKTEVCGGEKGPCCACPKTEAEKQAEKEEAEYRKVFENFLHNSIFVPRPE
Insulin-like growth factor 1 receptor, sequence (P08069 741-1367 limits assumed): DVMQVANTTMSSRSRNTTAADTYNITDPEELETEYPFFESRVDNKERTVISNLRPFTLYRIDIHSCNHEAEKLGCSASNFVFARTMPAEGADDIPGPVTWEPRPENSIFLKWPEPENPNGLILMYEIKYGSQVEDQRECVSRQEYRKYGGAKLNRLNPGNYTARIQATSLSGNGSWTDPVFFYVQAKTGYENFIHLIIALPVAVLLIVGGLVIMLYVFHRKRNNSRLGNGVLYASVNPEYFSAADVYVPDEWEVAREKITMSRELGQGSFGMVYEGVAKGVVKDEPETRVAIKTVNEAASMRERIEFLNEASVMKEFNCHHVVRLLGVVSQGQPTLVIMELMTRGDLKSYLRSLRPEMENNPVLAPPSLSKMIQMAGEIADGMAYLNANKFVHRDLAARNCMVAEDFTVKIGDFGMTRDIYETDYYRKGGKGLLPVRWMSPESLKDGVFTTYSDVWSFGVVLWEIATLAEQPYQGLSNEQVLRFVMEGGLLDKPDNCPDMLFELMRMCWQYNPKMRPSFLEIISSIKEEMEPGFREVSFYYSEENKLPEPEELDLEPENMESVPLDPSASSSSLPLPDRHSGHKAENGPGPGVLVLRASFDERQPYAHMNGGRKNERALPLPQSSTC
Serine/threonine-protein kinase Chk1, sequence (O14757 whole entry): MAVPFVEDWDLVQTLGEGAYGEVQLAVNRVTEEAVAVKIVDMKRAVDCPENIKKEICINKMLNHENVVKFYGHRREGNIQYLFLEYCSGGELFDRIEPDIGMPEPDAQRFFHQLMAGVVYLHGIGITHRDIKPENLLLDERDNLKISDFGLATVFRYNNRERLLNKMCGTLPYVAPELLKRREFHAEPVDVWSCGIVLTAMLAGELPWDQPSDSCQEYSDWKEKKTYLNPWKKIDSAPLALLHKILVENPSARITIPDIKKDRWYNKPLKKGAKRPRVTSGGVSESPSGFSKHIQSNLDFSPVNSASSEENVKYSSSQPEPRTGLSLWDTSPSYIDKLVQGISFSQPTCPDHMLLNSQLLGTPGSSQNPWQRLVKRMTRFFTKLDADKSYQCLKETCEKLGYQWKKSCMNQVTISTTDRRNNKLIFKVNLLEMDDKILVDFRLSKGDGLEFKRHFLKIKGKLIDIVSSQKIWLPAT
Macrophage-stimulating protein receptor, sequence (Q04912 25-304 limits assumed): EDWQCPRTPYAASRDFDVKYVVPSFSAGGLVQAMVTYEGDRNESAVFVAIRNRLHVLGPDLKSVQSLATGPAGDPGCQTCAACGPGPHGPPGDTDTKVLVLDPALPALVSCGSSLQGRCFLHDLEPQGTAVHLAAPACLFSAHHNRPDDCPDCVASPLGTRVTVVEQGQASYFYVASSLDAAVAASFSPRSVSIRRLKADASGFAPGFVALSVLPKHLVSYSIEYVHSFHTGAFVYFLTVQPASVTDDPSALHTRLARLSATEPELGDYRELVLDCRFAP
Macrophage-stimulating protein receptor, sequence (Q04912 310-1400 limits assumed): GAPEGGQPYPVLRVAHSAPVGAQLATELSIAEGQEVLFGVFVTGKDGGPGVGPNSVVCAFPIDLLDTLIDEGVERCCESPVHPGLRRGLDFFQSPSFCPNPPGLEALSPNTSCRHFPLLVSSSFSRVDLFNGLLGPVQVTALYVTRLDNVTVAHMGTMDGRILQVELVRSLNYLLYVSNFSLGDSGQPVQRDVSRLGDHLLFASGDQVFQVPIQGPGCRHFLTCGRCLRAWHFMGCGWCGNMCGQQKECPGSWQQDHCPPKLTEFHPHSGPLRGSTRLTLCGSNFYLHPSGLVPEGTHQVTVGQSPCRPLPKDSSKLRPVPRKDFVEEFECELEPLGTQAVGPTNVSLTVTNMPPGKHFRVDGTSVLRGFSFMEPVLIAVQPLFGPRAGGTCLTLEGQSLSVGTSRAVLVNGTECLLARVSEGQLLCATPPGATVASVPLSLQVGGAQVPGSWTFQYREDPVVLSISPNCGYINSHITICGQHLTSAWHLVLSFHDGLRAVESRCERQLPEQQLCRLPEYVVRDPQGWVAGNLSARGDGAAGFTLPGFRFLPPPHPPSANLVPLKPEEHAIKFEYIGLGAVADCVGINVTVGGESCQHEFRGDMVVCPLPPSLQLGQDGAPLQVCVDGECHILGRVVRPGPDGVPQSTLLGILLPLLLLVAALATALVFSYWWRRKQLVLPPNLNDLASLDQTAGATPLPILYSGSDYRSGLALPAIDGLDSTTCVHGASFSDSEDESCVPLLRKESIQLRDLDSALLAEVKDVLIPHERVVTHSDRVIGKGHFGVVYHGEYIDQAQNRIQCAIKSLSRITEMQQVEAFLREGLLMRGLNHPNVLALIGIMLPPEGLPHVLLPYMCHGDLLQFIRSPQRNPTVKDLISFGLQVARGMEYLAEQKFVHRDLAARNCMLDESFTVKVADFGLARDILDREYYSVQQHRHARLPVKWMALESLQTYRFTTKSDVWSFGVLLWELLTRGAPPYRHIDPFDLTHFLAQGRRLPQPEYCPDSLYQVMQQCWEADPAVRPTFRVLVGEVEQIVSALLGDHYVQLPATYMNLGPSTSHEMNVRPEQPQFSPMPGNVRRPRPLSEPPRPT
Serine/threonine-protein kinase Nek2, sequence (P51955 whole entry): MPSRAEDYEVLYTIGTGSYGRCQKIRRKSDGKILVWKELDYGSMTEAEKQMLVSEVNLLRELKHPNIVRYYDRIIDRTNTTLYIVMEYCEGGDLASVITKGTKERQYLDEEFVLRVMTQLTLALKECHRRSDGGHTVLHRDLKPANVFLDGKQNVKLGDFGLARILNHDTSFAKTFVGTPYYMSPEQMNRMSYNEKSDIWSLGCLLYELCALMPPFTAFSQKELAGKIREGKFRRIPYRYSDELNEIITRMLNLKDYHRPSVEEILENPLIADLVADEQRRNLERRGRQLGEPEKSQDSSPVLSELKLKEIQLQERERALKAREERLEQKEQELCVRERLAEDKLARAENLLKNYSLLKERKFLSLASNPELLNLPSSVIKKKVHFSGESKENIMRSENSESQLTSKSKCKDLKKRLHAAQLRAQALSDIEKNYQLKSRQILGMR
Interleukin-1 receptor-associated kinase 4, sequence (Q9NWZ3 whole entry): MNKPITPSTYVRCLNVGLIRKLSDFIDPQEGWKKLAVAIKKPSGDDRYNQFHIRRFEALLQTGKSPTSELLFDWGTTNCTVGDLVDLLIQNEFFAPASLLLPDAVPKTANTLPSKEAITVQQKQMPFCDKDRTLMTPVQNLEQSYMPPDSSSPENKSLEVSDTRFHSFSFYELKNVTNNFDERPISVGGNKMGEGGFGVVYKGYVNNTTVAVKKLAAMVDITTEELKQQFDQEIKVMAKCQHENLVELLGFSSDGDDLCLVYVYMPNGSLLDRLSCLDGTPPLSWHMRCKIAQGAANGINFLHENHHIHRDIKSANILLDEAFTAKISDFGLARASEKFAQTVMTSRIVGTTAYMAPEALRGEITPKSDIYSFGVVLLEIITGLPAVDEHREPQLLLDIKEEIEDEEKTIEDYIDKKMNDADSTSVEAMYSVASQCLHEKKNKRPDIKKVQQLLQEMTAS

## CN1CCN(c2nc(C3=C(c4c[nH]c5ccccc45)C(=O)NC3=O)c3ccccc3n2)CC1 [SOTRASTAURIN]
[1]
  Ki: > 2000 nM (inactive)
[2]
  Ki: > 5010 nM (inactive)
[3]
  Ki: 158 nM (active)
[4]
  Ki: > 1580 nM (inactive)
[5]
  Ki: 158 nM (active)
[6]
  Ki: > 5010 nM (inactive)
[7]
  Ki: > 6310 nM (inactive)
[8]
  Ki: > 2000 nM (inactive)
[9]
  Ki: 79.4 nM (active)
[10]
  Ki: > 2510 nM (inactive)
[11]
  Ki: > 1580 nM (inactive)
[12]
  Ki: > 3980 nM (inactive)
[13]
  Ki: > 3160 nM (inactive)
[14]
  Ki: > 2000 nM (inactive)
[15]
  Ki: > 10000 nM (inactive)
[16]
  Ki: 631 nM (active)
[17]
  Ki: > 6310 nM (inactive)
[18]
  Ki: 200 nM (active)
[19]
  Ki: > 5010 nM (inactive)
[20]
  Ki: > 10000 nM (inactive)
[21]
  Ki: > 2000 nM (inactive)

## CCCCCCCCCCOC(=O)C[n+]1c(COc2ccc(C)cc2)n(C)c2ccccc21
[22]
  IC50: 7280 nM (active)
[23]
  AC50: 5510 nM (active)
[24]
  EC50: > 150000 nM (not active)

## CC[C@@H](CO)NC(=O)[C@@H]1C=C2c3cccc4c3c(cn4C)C[C@H]2N(C)C1 [METHYSERGIDE MALEATE]
[25]
  AC50: 11.5 µM (active) and 11.7 µM (active)

## CCN1/C(=C\c2ccc3ccccc3[n+]2CC)Sc2cc(C)ccc21
[26]
  EC50: > 12000 nM (not active)
[27]
  IC50: 2750 nM (active)
